{"source": "patent US20110294794A1", "about": "“TREATMENT OF PROTEINOPATHIES USING A FARNESYL TRANSFERASE INHIBITOR” (Link Medicine Corporation, priority 2008, published 2011)", "key": {"APP/PS1 transgenic mice": {"test_system": "APP/PS1 transgenic mice", "test": "Morris water maze in APP/PS1 transgenic mice", "format": "in vivo, mouse", "conditions": "0.9 mg/kg once every 24 hours", "experimental": "(§1) Animals and treatments: Male and female human WT alpha-synuclein over-expressing transgenic mice^32 at 6 months of age were given vehicle (10% beta-cyclodextrin) or LNK-754-TS (0.09, 0.9 and 9 mg/kg) per oral gavage twice daily for 3 months or animals at 7 months of age were given vehicle (2.5% beta-cyclodextrin) or LNK-754-TS (2 mg/kg) once every three days for 3 months. Male and female TAU transgenic mice expressing TAU441 bearing the missense mutations V337M^50 and R406W under the control of the murine Thy-1 promoter with a CB6xC57BL/6 background were 5 months old at the time when the oral treatment for three months with LNK-754-TS (0.9 and 0.09 mg/kg) as well as vehicle (2.5% beta-cyclodextrin) was started. Female human APP/PS1 (APP (London V7171)/PS1(A246E)) over-expressing transgenic mice were treated with LNK-754-TS (0.9 mg/kg) or vehicle (2.5% beta-cyclodextrin) for 2 months or 12 days.\nMorris water maze (MWM) analysis of cognitive performance: In APP/PS1 transgenic animals, swimming behavior in a Morris Water Maze was videotaped and analyzed (Ethovision, Noldus, Wageningen, Netherlands). For mice, a place navigation test was used to locate the hidden platform in five blocks of three trials over three consecutive days. […] The time each mouse needed for location of the platform was measured. […] The time and path length each rat needed to locate the platform was measured. […]"}, "LC3": {"test_system": "LC3", "test": "Punctate LC3 immunostaining in SH-SY5Y cells", "format": "cell-based, human", "conditions": "100 nM (FIG. 8b)", "experimental": "Cell culture and immunocytochemistry: SH-SY5Y cells were grown in DMEM medium supplemented with 10% FBS and 1% pen/strep at 37° C. and 5% CO2. Cells were differentiated with 10 μM retinoic acid for 48 hr, then treated with the either rapamycin (100 nM or 1 μM) or with 100 nM of either LNK-754-TS or Tipifarnib for 48-72 hr. Cells were then fixed with 4% paraformaldehyde and stained for LC3 (Novus biological, NB100-2331, dilution 1:800) followed by secondary Alexa-564 anti-Rabbit (A-11011).\nAutophagy was measured in a neuroblastoma cell culture system by three distinct approaches: quantitation of autophagy-related mRNA's, immunofluorescence microscopy of autophagosomes, and biochemical detection of the microtubule-associated protein 1 light chain 3 (LC3) a key protein that is required for autophagosome formation. Differentiated human neuroblastoma cells (SH-SY5Y) were treated for 72 hr with LNK-754-TS (0.01-100 nM), Zarnestra® (also referred to herein as tipifarnib) (100 nM) or rapamycin (1 μM)."}, "α-synuclein": {"test_system": "α-synuclein", "test": "Masliah D-line human WT α-synuclein transgenic mouse, α-synuclein immunoreactivity / ELISA", "format": "in vivo", "conditions": "for α-synuclein deposition in cortex and hippocampus: three months (FIG. 9a); for number of α-synuclein positive neurons in the brain: higher-dose trial (FIG. 2A)", "experimental": "as §1\nImmunohistochemistry and quantification of stained cells: For evaluation of α-synuclein immunoreactivity (IR), 5 sagittal cryo-cut sections (10 μm slice thickness) from five different layers were used for counting of IR cells in the cortex and hippocampus. Brain sections were stained with a monoclonal human α-synuclein specific antibody (Alexis®; Cat# 804-258-L001; dilution 1:5), followed by a secondary Ab Cy 2-Goat Anti-Rat (Jackson ImmunoResearch®; dilution 1:200). IR positive cells were quantified using specialized image analysis software (Image Pro Plus, version 4.5.1.29). For Tau transgenic animals, 5 μm thick coronal paraffin sections were stained with the monoclonal mouse anti-human TAU-antibodies (AT180—1:100; HT—1:500) and visualized using an anti-mouse Cy3 secondary antibody (1:500, Jackson laboratories®). Images were evaluated with ImageProPlus (version 6.2) image analysis software. For APP/PS1 transgenic animals sagittal hemisections (40 μm) were collected and processed for Aβ immunohistochemistry using an 6E10 antibody, Thioflavin-S staining Primary antibodies were detected by the ABC method.\nELISA quantification of α-Synuclein in the α-Synuclein transgenic animals: Brain homogenate was centrifuged and the supernatant saved as fraction F1. The pellet was washed then resuspended and saved as fraction F2. Plates (Nunc, 464718) were coated with SYN-1 (1:1000, BD Transduction Labs, 610787). Monomeric recombinant α-synuclein was included as an internal standard. Biotinylated antibody FL-140 (1:300, Santa Cruz Biotechnology, sc-10717-B) and ExtrAvidin-Alkaline phosphatase (3:5000, Sigma, E2636) was added followed by pNPP substrate solution (Sigma, N1891). Raw absorbance (405 nm) was then normalized to the total protein concentration of each sample. In the APP/PS1 transgenic animal, brains were homogenized and the supernatant, Faction 1, was separated from the pellet. The pellets were further processed with addition of NP40 and Triton X-100. The supernatant was separated from the pellet as the insoluble membrane, Fraction 2, and was dissolved in 8M Guanidine. To quantify the amount of human Aβ-40 and Aβ-42, ELISA kits were used (The Genetics Company, Zurich, Switzerland).\nIn FIG. 2 is shown efficacy data for LNK-754-TS in the Masliah D-line transgenic α-synuclein mouse (an accepted model of synucleinopathies). Two trials are shown, the first (FIG. 2A) at higher doses of LNK-754-TS: 45 mg/kg and 9 mg/kg. […] The second trial (FIG. 2B) explores the low dose range for efficacy in the α-synuclein models. […]\nAfter dosing with LNK-754-TS for three months (twice daily at 0.09 mg/kg or 0.9 mg/kg), α-synuclein accumulation in the brain was analyzed by immunohistochemical (human specific α-synuclein immunoreactivity) and biochemical (α-synuclein ELISA) means. […]"}, "[1]": {"conditions": "three-month dosing trial (FIG. 9c)"}, "[2]": {"conditions": "twice daily at 0.09 mg/kg or 0.9 mg/kg, three months"}}, "note": "Entries after “also recorded” stand apart in the source; their conditions may differ."}
{"molecule": "C#Cc1cccc(-c2cc(=O)n(C)c3ccc([C@](O)(c4ccc(Cl)cc4)c4cncn4C)cc23)c1", "note": "[LNK-754-TS, (R)-6-[(4-chlorophenyl)-hydroxyl-(1-methyl-1-H-imidazol-5-yl)-methyl]-4-(3-ethynylphenyl)-1-methyl-2-(1H)-quinonlinone (2S,3S)-dihydroxybutanedioate]", "values": [{"measurement": "cognitive performance in Morris water maze vs. vehicle", "setting": "APP/PS1 transgenic mice; 12 days", "result": "significant cognitive improvement"}, {"measurement": "cognitive performance in Morris water maze vs. vehicle", "setting": "APP/PS1 transgenic mice; two months", "result": "performed significantly better; also recorded: significant cognitive improvement"}, {"measurement": "punctate LC3 immunostaining (number of LC3-positive puncta)", "setting": "LC3", "result": "distinct increase; also recorded: increased"}, {"measurement": "α-synuclein deposition in cortex and hippocampus", "setting": "α-synuclein; 0.09 mg/kg twice every 24 hr", "result": "halts deposition"}, {"measurement": "α-synuclein deposition in cortex and hippocampus", "setting": "α-synuclein; 0.9 mg/kg twice every 24 hr", "result": "halts deposition"}, {"measurement": "cortical α-synuclein immunoreactivity vs. baseline and vehicle", "setting": "α-synuclein; 2 mg/kg once every 72 hr, three months (FIG. 9b)", "result": "significantly lower; also recorded: significantly reduces"}, {"measurement": "number of α-synuclein positive neurons in the brain", "setting": "α-synuclein; 9 mg/kg PO BID 3 months", "result": "significant reduction"}, {"measurement": "number of α-synuclein IR cells in the hippocampus vs. saline", "setting": "α-synuclein; 9 mg/kg group, PO BID 3 months, lower-dose trial (FIG. 2B)", "result": "significance level was not reached"}, {"measurement": "number of α-synuclein positive neurons in the brain", "setting": "α-synuclein; 45 mg/kg PO BID 3 months", "result": "not significantly effective"}, {"measurement": "efficacious dose in the α-synuclein transgenic mouse", "setting": "α-synuclein; PO BID 3 months", "result": "≤ 9", "unit": "mg/kg"}, {"measurement": "number of α-synuclein IR cells in the hippocampus vs. saline", "setting": "α-synuclein; all applied dosages except 9 mg/kg, PO BID 3 months (FIG. 2B)", "result": "significant decrease"}, {"measurement": "effect on neuronal architecture (NeuN)", "setting": "α-synuclein; [1]", "result": "lack of effect"}, {"measurement": "reduction of α-synuclein immunoreactivity, representative hippocampal slices", "setting": "α-synuclein; [1]", "result": "ca. 50%"}, {"measurement": "astrocytosis: GFAP staining", "setting": "α-synuclein; [2]", "result": "unchanged"}, {"measurement": "drug-dependent toxicity", "setting": "α-synuclein; [2]", "result": "None of the treated animals showed any evidence"}, {"measurement": "neuronal loss: NeuN staining and brain volume", "setting": "α-synuclein; [2]", "result": "unchanged"}, {"measurement": "synaptic damage: synaptophysin staining", "setting": "α-synuclein; [2]", "result": "unchanged"}, {"measurement": "α-synuclein accumulation in the brain (immunoreactivity and ELISA)", "setting": "α-synuclein; [2]", "result": "clearly reduced"}]}
